What was measured:
MDA-MB-231 cells [1] = assay: In vitro cytotoxicity assay (CellTiter-Glo); type: cell-based, human; settings: for cell viability: 3-day assay
Procedure: (§1) The 96-well plates were seeded with MDA-MB-231 and MDA-MB-468 cells at VCD of 5×10^5 cells/mL in 100 μL of DMEM/F12 complete medium with triplication. Then 100 μL of cell growth medium containing ADC or free drug was added to reach final concentrations of 0-200 nM and incubated in CO2 incubator for 72 hrs. The cytotoxicity of ADC or free drug was measured with CellTiter-Glo Luminescent Cell Viability Assay (Promega, Madison, […]) and reported as the relative viability using untreated cells as control. The IC50 value was calculated using ED50V10 Excel add-in.

MDA-MB-468 cells [2] = assay: In vitro cytotoxicity assay (CellTiter-Glo); type: cell-based, human; settings: for cell viability: 3-day assay
Procedure: as §1

CD47 = assay: Western blotting of CD47 in GC treated MDA-MB-231 cells; type: cell-based, human; settings: 10 nM for 3 weeks
Procedure: The non-reducing SDS-PAGE was run by loading 2 μg of mAb or ADC to Bolt™ 4 to 12%, Bis-Tris Mini Protein Gel (1.0 mm) to validate the purity and integrality of the produced anti-CD47 mAb and ADC. In Western blotting analysis, 30 μg of total cell lysis protein was loaded to gel and electro-transferred to PVDF membrane using PowerEase™ Touch 350 W Power Supply (Fisher). After blocking, the blotted membrane was probed using primary rabbit anti-mouse antibody and HRP-conjugated secondary anti-rabbit antibody (Abcam, Cambridge, UK). The blotted membrane was treated with Luminata Forte Western HRP substrate (Millipore, Boston, MA). The SDS-PAGE and Western blots were imaged with MyECL imager and quantified using ImageJ software.
The surface expression of CD47 in TNBC cell lines was analyzed using mass spectrometry (MS, Thermo Orbitrap Velos Pro) at the University of Alabama at Birmingham (UAB) MS and proteomics core facility. […] Furthermore, to confirm the CD47 upregulation by chemotherapy, we treated MDA-MB-231 cells with 10 nM GC for 3 weeks.

[3] = system: MDA-MB-231-FLuc xenograft; assay: IVIS imaging of in vivo TNBC targeting; set-up: species or system mouse
Description: (§2) Human TNBC xenograft mouse model was generated by subcutaneously (s.c.) injecting 3×10^6 of MDA-MB-231-FLuc cells into the 6-week-old NSG (NOD scid gamma) female mice (Jackson Labs, Bar Harbor, ME). This immunocompromised model was used to evaluate the tumor targeting of our mAb and anti-TNBC efficacy of the constructed ADC. The immunocompetent mouse model was generated by injecting 1×10^6 of mouse TNBC 4T1-FLuc cells into the BALB/cJ female mice, which was used to analyze the tumoral immunity. Mice developed tumors within 2 weeks post cells injection.
When TNBC tumor volume reached approximately 100 mm^3, 50 μg of Cyanine 5.5 (Cy5.5, Lumiprobe, Hunt Valley, MD) labelled anti-CD47 mAb or 1.5 nmole Cy5.5 (control, similar amount as labelled Cy5.5 in mAb) was intravenously (i.v.) administrated via tail vein for TNBC-targeting analysis. Mice were imaged at 24 hrs post mAb injection under IVIS Lumina Series III (PerkinElmer, Waltham, MA) with wavelength of 660 nm/710 nm (excitation/emission) and exposure time of 10 seconds. Inhalation anesthesia was induced by delivering 3.5-4.5% isoflurane in oxygen to mice via respiratory system (nose cone), then maintained with a concentration of 1-2% during imaging procedure.

MDA-MB-231 cells [4] = assay: Flow cytometry surface binding; set-up: species or system human; settings: MDA-MB-231, mAb-AF647, flow cytometry
Procedure: (§3) The flow cytometry was conducted to analyze anti-CD47 mAb's binding rate to TNBC cells and quantify the immune cells using a BD LSRII flow cytometer (BD Biosciences, San Jose, CA). In surface binding analysis, the produced CD47 mAb was labelled with an Alexa Fluor™ 647 labelling kit (Life Technologies, part of Fisher) and used to stain MDA-MB-468, MDA-MB-231, 4T1, and 184B5 cells with 5 μg of mAb-AF647 per million of cells at room temperature for 30 mins (Ou, J.; et al. PLOS ONE 2018; Si, Y.; et al. Pharmaceutics 2020, 12:1079-1090; Ou, J.; et al. J Biol Eng 2019, 13:34). The harvested lymph nodes were dissociated with Tissue Dissociation/Single Cell Isolation Kit (101 Bio LLC, Sunnyvale, CA) following manufacturing procedure, and stained with Cy5 anti-CD69 antibody, APC anti-CD11c antibody, or PE/Cy7 anti-CD4 antibody (BioLegend, San Diego, CA) for flow cytometry analysis.

MDA-MB-468 cells [5] = assay: Flow cytometry surface binding; set-up: species or system human; settings: MDA-MB-468, mAb-AF647, flow cytometry
Procedure: as §3

4T1 cells = assay: Flow cytometry surface binding; settings: mouse TNBC 4T1, mAb-AF647, flow cytometry
Procedure: as §3

[6] = system: normal breast 184B5 cells; assay: Flow cytometry surface binding; settings: normal 184B5 cells, mAb-AF647, flow cytometry
Procedure: as §3

MDA-MB-468 cells [7] = assay: Live-cell confocal imaging of internalization; type: cell-based, human; settings: AF647 labelled mAb
Description: Confocal microscopy imaging was collected to validate the targeting and internalization of anti-CD47 mAb in TNBC cells following our reported protocol (Si, Y.; et al. Cancer Gene Therapy. Cancer Gene Therapy 2020; Si, Y.; et al. Eng Life Sci 2021, 21:37-44; Ou, J.; et al. PLOS ONE 2018; Si, Y.; et al. Pharmaceutics 2020, 12:1079-1090; Si, Y.; et al. Biotechnol J 2019). Briefly, the MDA-MB-468 cells were stained with BacMam GFP Transduction Control, which expresses eGFP protein in cytoplasm, NucBlue Live ReadyProbes to stain nucleus, and AF647 labelled anti-CD47 mAb to target TNBC cells via surface receptor. The live-cell images were collected using a Nikon A1R-HD25 confocal microscope with a high-speed resonance scanner (Nikon USA, Melville, NY).

[8] = system: MDA-MB-231-FLuc xenograft; assay: In vivo anti-TNBC efficacy study; set-up: species or system mouse; unit not given here; settings: 8 mg/kg i.v. Q4Dx4, terminal tumor; no significant difference to PBS group
Description: as §2
The TNBC MDA-MB-231-FLuc xenograft mice were treated with 16 mg/kg-BW of GC by intraperitoneal (IP) injection when tumor volume reached ˜50 mm^3. […] Tumor volume was measured using an electronic caliper and calculated as “width×width×length/2” in mm. Body weight was measured every other day. The in vivo treatment study was ended after 21-day treatment which was determined based on our previous ADC treatment animal study (Si, Y.; et al. Eng Life Sci 2021, 21:37-44; Ou, J.; et al. PLoS One 2018, 13:e0206246; Xu, N.; et al. Biochemical Engineering Journal 2019, 145:177-185). At the end of the experiment, mice were euthanized and the TNBC tumors were collected to measure the wet weight.

[9] = Toxicity in the efficacy study (body weight, H&E staining of organs); type: in vivo, mouse; settings: 8 and 24 mg/kg ADC, 8 mg/kg mAb, PBS; Q4Dx4
Procedure: […] […] Tumor volume was measured using an electronic caliper and calculated as “width×width×length/2” in mm. Body weight was measured every other day. The in vivo treatment study was ended after 21-day treatment which was determined based on our previous ADC treatment animal study (Si, Y.; et al. Eng Life Sci 2021, 21:37-44; Ou, J.; et al. PLoS One 2018, 13:e0206246; Xu, N.; et al. Biochemical Engineering Journal 2019, 145:177-185). At the end of the experiment, mice were euthanized and the TNBC tumors were collected to measure the wet weight.
The IHC and H&E staining were performed. In IHC staining, the paraffin-embedded slides were immersed in xylene followed by 3% H2O2 in PBS, and blocked with 3% normal goat serum. The rabbit anti-mouse CD11b mAb (Cell Signaling, Danvers, MA) and HRP-conjugated goat anti-rabbit IgG mAb were used to stain the macrophage in tumor tissue. After color development with DAB chromogen, the slides were counterstained with hematoxylin and dehydrated in absolute ethanol. In H&E staining, the embedded normal organ slides were dewaxed, hydrated with 100%-0% ETOH, immersed in hematoxylin solution, and rinsed with tap water and eosin. After equilibration in ethanol, the stained slides were dipped in Xylene and mounted with cytoseal Xyl.

[10] = Whole blood analysis (HemaVet 950FS) in 4T1 xenograft BALB/cJ model; type: in vivo, mouse; settings: 8 mg/kg, after two weeks, BALB/cJ 4T1 xenograft
Description: The blood samples were extracted by cardiac puncture for whole blood analysis using HemaVet 950FS (Drew Scientific, Miami Lakes, FL). The leukocytes (white blood cell, neutrophil, lymphocyte, monocyte, eosnophils), erythrocytes (red blood cell, hemoglobin, mean corpuscular hemoglobin), and thrombocytes (platelet) were titrated to analyze the general peripheral immune response.
as §2
The general immune response to anti-CD47 mAb was also tested using whole blood analysis and flow cytometry analysis of lymph nodes in the 4T1 xenograft BALB/cJ model (n=4). The mice carrying 50 mm^3 xenograft were treated with 8 mg/kg anti-CD47 mAb. After two weeks, blood was collected through cardiac puncture. […] The lymph nodes were also harvested and dissociated for flow cytometry analysis of fresh cells. […]

lymph node immune cells = assay: Flow cytometry analysis of immune cells in lymph nodes, 4T1 xenograft BALB/cJ model; type: in vivo, mouse; settings: 8 mg/kg, BALB/cJ 4T1 xenograft
Procedure: as §3, §2
The general immune response to anti-CD47 mAb was also tested using whole blood analysis and flow cytometry analysis of lymph nodes in the 4T1 xenograft BALB/cJ model (n=4). The mice carrying 50 mm^3 xenograft were treated with 8 mg/kg anti-CD47 mAb. After two weeks, blood was collected through cardiac puncture. […] The lymph nodes were also harvested and dissociated for flow cytometry analysis of fresh cells. […] In the future, a full investigation of immune function in tumor microenvironment is needed in order to delineate the possible anti-TNBC immunity of this mAb.

COc1cc2cc(c1Cl)N(C)C(=O)C[C@H](OC(=O)[C@H](C)N(C)C(=O)CCS)[C@]1(C)O[C@H]1[C@H](C)[C@@H]1C[C@@](O)(NC(=O)O1)[C@H](OC)/C=C/C=C(\C)C2 [DM1, mertansine]
cell viability (MDA-MB-231 cells [1]; MDA-MB-231, 25 nM): 94%
cell viability (MDA-MB-231 cells [1]; MDA-MB-231, 50 nM): 72%
cell viability (MDA-MB-231 cells [1]; MDA-MB-231, 100 nM): 53%
cell viability (MDA-MB-231 cells [1]; MDA-MB-231, 200 nM): 54%
IC50 (MDA-MB-231 cells [1]; MDA-MB-231, 72 hrs): 0.047 µM
cell viability (MDA-MB-468 cells [2]; MDA-MB-468, 25 nM): 56%
cell viability (MDA-MB-468 cells [2]; MDA-MB-468, 50 nM): 37%
cell viability (MDA-MB-468 cells [2]; MDA-MB-468, 100 nM): 32%
cell viability (MDA-MB-468 cells [2]; MDA-MB-468, 200 nM): 34%
IC50 (MDA-MB-468 cells [2]; MDA-MB-468, 72 hrs): 0.021 µM

Nc1ccn([C@@H]2O[C@H](CO)[C@@H](O)C2(F)F)c(=O)n1 [GC, gemcitabine]
CD47 expression (CD47): increased

Cyanine 5.5 [Cy5.5]
distribution in major organs (brain, heart, lung, spleen, kidney, liver) ([3]; 24 hrs post i.v. injection, IVIS): distributed in multiple locations such as brain, liver and kidney

B1: anti-CD47 mAb: anti-CD47 mAb (IgG2b/kappa) targeting the extracellular domain (Gln19-Glu141) of CD47; heavy chain SEQ ID NO:1, light chain SEQ ID NO:2 (antibody)
heavy: MLLGLKWVFFVVFYQGVHCEVQLVESGGGLVQPKGSLKLSCAASGFTFNTYAMNWVRQAPGKGLEWIARIRSKSNNYATYYADSMKDRFTISRDDSQSMLYLQMNNLKTEDTAMYYCVRPAQGAMDYWGHGTSVTVSSSKTTPPSVYPLAPGCGDTTGSSVTLGCLVKGYFPESVTVTWNSGSLSSSVHTFPALLQSGLYTMSSSVTVPSSTWPSQTVTCSVAHPASSTTVDKKLEPSGPISTINPCPPCKECHKCPAPNLEGGPSVFIFPPNIKDVLMISLTPKVTCVVVDVSEDDPDVQISWFVNNVEVHTAQTQTHREDYNSTIRVVSTLPIQHQDWMSGKEFKCKVNNKDLPSPIERTISKIKGLVRAPQVYILPPPAEQLSRKDVSLTCLVVGFNPGDISVEWTSNGHTEENYKDTAPVLDSDGSYFIYSKLNMKTSKWEKTDSFSCNVRHEGLKNYYLKKSFSRTPGK
light: MVFTPQILGLMLFWISASRGDIVLTQSPATLSVTPGDSVSLSCRASQRISNNLHWYQQKSHESPRLLIKYSSQSISGIPSRFSGSGSGTDFTLSINSVETEDFGMYFCQQSNAWPYTFGGGTKLEIRRADAAPTVSIFPPSSEQLTSGGASVVCFLNNFYPKDINVKWKIDGSERQNGVLNSWTDQDSKDSTYSMSSTLTLTKDEYERHNSYTCEATHKTSTSPIVKSFNRNEC
surface binding (MDA-MB-231 cells [4]): 97.3%
surface binding (MDA-MB-468 cells [5]): 98.9%
surface binding (4T1 cells): 90.5%
surface binding [6]: 4.39%
time to internalization and localization in cytoplasm after mixing (MDA-MB-468 cells [7]): ≤ 60 min
time to targeting and accumulation in TNBC tumor post i.v. injection ([3]; mouse, in vivo, iv): ≤ 24 h
tumor weight [8]: 307±76
overall body weight change among the four groups [9]: no obvious difference
leukocytes, erythrocytes and thrombocytes counts vs PBS control group [10]: no obvious difference
CD11c+ DC cells in lymph nodes (lymph node immune cells; PBS control 5.44%): 8.49%
CD69+ NK cells in lymph nodes (lymph node immune cells; PBS control 6.55%): 10.3%
CD4+ T cells in lymph nodes (lymph node immune cells; PBS control 63.8%): 68.3%

Reference: patent US11807685B2, “Anti-CD47 antibody and uses thereof” (THE UAB RESEARCH FOUNDATION, priority 2021, dated 2023)
